Literature values as cited in patent publication US20030113384A1, “Antimicrobial compositions for mastitis control” (Ecolab Inc., priority 1999, published 2003).

SMILES: CCCCCCC(=O)O [heptanoic acid]
- pKa: 4.4
